Assay results: US12281079B2, “Quinoline derivatives, processes for their preparation and uses thereof for the treatment of cancer” (Lead Discovery Center GmbH, priority 2019, dated 2025)

How the values were obtained:
[1] = system: mitochondrial transcription (7S RNA) in HeLa cells; assay: Quantitative real time-PCR assay of inhibition of mitochondrial transcription (7S RNA) in HeLa cells; assay type: cell-based; conditions: Homo sapiens, 4 h compound incubation, according to Example 5, read-out: cellular qPCR assay
Method: Quantitative real-time PCR (qRT-PCR), based on the TaqMan™ (Thermo Fisher Scientific, Waltham Mass.) technology, was carried out essentially as described in Held et al. (1996). HeLa cells were plated one day before compound treatment in RPMI medium supplemented with 10% Fetal Calf Serum and 2 mM L-glutamine. Cells were incubated with dilution series of compounds or vehicle (DMSO) for 4 h, prior to harvest and extraction of the RNA using the RNeasy Mini Kit (Qiagen, Hilden D), according to the manufacturer's instructions. RNA concentrations were measured spectroscopically, using a NanoDrop-2000 (Thermo Fisher Scientific, Waltham Mass.) and normalized prior to cDNA synthesis, using a ‘High-Capacity cDNA Reverse Transcription Kit’ (Thermo Fisher Scientific, Waltham Mass.). qRT-PCR was carried out using the ‘TaqMan Fast Advance Master Mix’ (Thermo Fisher Scientific, Waltham Mass.) on a 7500 Fast Real-Time PCR machine (Applied Biosystems, Foster City Calif.)
For these measurements, three genes were used to compare the effect of the scrutinized compounds in relation to their concentration. The POLRMT-gene was used to detect potential influences on nuclear transcription. Mitochondrial transcription in vivo was monitored by measurements 7S RNA. The TBP (TATA-box binding protein) gene was employed as the control (housekeeping gene) during qRT-PCR. The short-lived mitochondrial 7S RNA, which is not post-transcriptionally stabilized, allowed us to monitor rapid changes in mitochondrial transcription activity following compound addition. Biological triplicates were analyzed using the comparative CT Method (ΔΔCt) method (Bubner and Baldwin, 2004) and reported as Rq % values (Rq=Relative quantification=2−ΔΔCt).

[2] = target: mitochondrial RNA polymerase (POLRMT) (Mus musculus, UniProt Q8BKF1); assay: Homogeneous TR-FRET assay for mitochondrial transcription activity; assay type: biochemical; conditions: homogeneous TR-FRET assay according to Example 4
From the text: The TR-FRET assay was basically conducted as described in WO2016/193231A1, especially as described in example 1 (hereby incorporated by reference). With respect to the back ground of the mitochondrial transcription it is referred to Falkenberg et al. (2002) and Posse et al. (Posse et al., 2015). The method monitors the activity of mitochondrial RNA-polymerase via detection of the formation of its product, a 407 bp long RNA sequence. Detection of the product is facilitated by hybridization of two DNA-oligonucleotide probes to specific and adjacent sequences within the RNA product sequence. Upon annealing of the probes, two fluorophores that are coupled directly to an acceptor nucleotide probe (ATT0647, 5′) or introduced via a coupled streptavidin interacting with a biotinylated donor nucleotide probe on the other side (Europium cryptate, 3′) are brought into sufficient proximity to serve as a fluorescence-donor-acceptor pair as generally described in Walters and Namchuk (2003). Thus, a FRET signal at 665 nm is generated upon excitation at 340 nm.
Briefly, the protocol described here was applied for screening and activity determination in a low-volume 384-well microtiter plate with non-binding surface. For high-throughput application in the 1536-well microtiter plate format, volumes of the reagent mixes were adjusted, maintaining the volumetric ratio. Proteins POLRMT (NM_172551.3), TFAM (NM_009360.4) and TFB2M (NM_008249.4) were diluted from their stocks to working concentrations of 150 nM, 1.8 μM and 330 nM respectively, in a dilution buffer containing 100 mM Tris-HCl pH 8.0, 200 mM NaCl, 10% (v/v) glycerole, 2 mM glutathione (GSH), 0.5 mM EDTA and 0.1 mg/mL BSA. Protein dilutions and template DNA, comprising a pUC18 plasmid encoding the mitochondrial light strand promoter, restriction linearized proximal to the promoter 3′-end (pUC-LSP), were mixed at the twofold final assay-concentration in a reaction buffer, containing 10 mM Tris-HCl pH 7.5, 10 mM MgCl2, 40 mM NaCl, 2 mM GSH, 0.01% (w/v) Tween-20 and 0.1 mg/mL BSA.
5 μL of this mix were dispensed, depending on the chosen microtiter plate format, using multi-channel pipettes or a Multidrop® dispenser (Thermo Fisher Scientific, Waltham Mass.) into the wells of a microtiter plate and incubated at room temperature (rt) for 10 min. Chemical compounds under scrutiny in the assay were applied using contact-free acoustic droplet-dispensing (Echo520® Labcyte Inc., Sunnyvale Calif.) from 10 mM compound stocks in 100% DMSO, to a final concentration of 10 μM or in serial dilution series of the required concentration range. Equal amounts of DMSO without any compound were added to positive control samples, followed by an incubation step at rt for 10 min.
The enzymatic reaction was started by the addition of 5 μL of a mix of dNTPs in reaction buffer to a final concentration of 500 μM each. No nucleotide mix was added to negative control samples. The content of the wells was mixed using a VarioTeleshaker™ (Thermo Fisher Scientific, Waltham Mass.) at 1500 rpm for 45 sec after which the microtiter plate was centrifuged at 500×g for 1 min. The samples were incubated for 2 h at rt with humidity control to avoid evaporation. The detection reagents were prepared in a buffer that was composed, such that the enzymatic reaction was terminated due to chelating of Mg-ions and increased ionic strength, containing 50 mM Tris-HCl pH 7.5, 700 mM NaCl, 20 mM EDTA, and 0.01% (w/v) Tween-20. Importantly Eu-cryptate-coupled streptavidin had to be preincubated with a 100-fold molar excess of a random sequence oligonucleotide for 10 min at rt in the dark to block unspecific binding of single stranded RNA to the protein. Subsequently, the blocked streptavidin(-Eu) was mixed with the DNA-probes on ice and kept away from light until use. […]

Chain of mitochondrial RNA polymerase (POLRMT) (Q8BKF1 42-1207): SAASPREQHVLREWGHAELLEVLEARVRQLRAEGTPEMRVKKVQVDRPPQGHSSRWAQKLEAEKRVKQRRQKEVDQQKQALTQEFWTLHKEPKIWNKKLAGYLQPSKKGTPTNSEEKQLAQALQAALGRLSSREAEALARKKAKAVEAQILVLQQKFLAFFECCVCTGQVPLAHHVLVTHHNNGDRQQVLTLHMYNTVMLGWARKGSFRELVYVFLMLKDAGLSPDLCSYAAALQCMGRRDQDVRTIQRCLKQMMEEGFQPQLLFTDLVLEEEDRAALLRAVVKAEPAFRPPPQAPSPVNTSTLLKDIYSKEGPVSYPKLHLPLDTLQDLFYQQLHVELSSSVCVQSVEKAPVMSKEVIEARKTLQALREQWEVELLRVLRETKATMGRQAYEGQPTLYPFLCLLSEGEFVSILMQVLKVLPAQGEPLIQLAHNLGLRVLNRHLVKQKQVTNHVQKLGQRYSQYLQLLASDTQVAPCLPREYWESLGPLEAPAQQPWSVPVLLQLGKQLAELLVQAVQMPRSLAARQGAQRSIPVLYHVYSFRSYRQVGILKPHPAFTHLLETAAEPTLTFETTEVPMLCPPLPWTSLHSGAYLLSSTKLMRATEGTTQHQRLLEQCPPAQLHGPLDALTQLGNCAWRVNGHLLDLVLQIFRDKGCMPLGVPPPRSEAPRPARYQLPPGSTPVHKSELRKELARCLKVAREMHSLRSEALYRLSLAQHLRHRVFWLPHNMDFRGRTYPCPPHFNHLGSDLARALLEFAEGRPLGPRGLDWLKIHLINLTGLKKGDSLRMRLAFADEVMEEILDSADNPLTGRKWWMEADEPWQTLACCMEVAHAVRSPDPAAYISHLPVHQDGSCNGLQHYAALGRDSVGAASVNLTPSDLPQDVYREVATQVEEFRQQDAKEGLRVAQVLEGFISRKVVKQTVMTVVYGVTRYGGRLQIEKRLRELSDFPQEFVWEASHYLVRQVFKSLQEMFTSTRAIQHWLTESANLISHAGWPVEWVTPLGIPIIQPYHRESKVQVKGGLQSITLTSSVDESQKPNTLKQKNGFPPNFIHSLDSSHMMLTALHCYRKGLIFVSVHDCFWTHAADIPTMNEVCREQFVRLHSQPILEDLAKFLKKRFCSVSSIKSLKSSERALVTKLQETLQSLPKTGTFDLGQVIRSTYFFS

Compound	IC50 [1] [nM]	IC50 [2] [nM]
C[C@@H](Oc1ccc2c(-c3ccc(F)cc3Cl)ccnc2c1)C(=O)N1CCCC(CS(N)(=O)=O)C1 (mixture of isomers) [Compound 123, [1-[rac-(2R)-2-[[4-(2-chloro-4-fluoro-phenyl)-7-quinolyl]oxy]propanoyl]-3-piperidyl]methanesulfonamide]	50 to 500	100 to 1000
C[C@@H](Oc1ccc2c(-c3c(Cl)cc(F)cc3Cl)ccnc2c1)C(=O)N1CCCC2(CC2C(=O)O)C1 (mixture of isomers) [Compound 177, 5-[rac-(2R)-2-[[4-(2,6-dichloro-4-fluoro-phenyl)-7-quinolyl]oxy]propanoyl]-5-azaspiro[2.5]octane-2-carboxylic acid]	< 10	< 20
Cc1cc(F)cc(C)c1-c1ccnc2cc(O[C@H](C)C(=O)N3CCC4(CC3)COC4)ccc12 [Compound 179, (2R)-2-[[4-(4-fluoro-2,6-dimethyl-phenyl)-7-quinolyl]oxy]-1-(2-oxa-7-azaspiro[3.5]nonan-7-yl)propan-1-one]	< 10	< 20
C[C@@H](Oc1ccc2c(-c3c(Cl)cc(F)cc3Cl)ccnc2c1)C(=O)N1CCC[C@](C)(C(=O)O)C1 [Compound 173, (3S)-1-[(2R)-2-[[4-(2,6-dichloro-4-fluoro-phenyl)-7-quinolyl]oxy]propanoyl]-3-methyl-piperidine-3-carboxylic acid]	< 10	< 20
C[C@@H](Oc1ccc2c(-c3c(Cl)cc(F)cc3Cl)ccnc2c1)C(=O)N1CCC2(CC1)COC2 [Compound 208, (2R)-2-[[4-(2,6-dichloro-4-fluoro-phenyl)-7-quinolyl]oxy]-1-(2-oxa-7-azaspiro[3.5]nonan-7-yl)propan-1-one]	10 to 50	100 to 1000
CCOC(=O)C[C@H]1CCCN(C(=O)[C@@H](C)Oc2ccc3c(-c4ccccc4C)ccnc3c2)C1 [Compound 8, ethyl 2-[(3R)-1-[(2R)-2-[[4-(o-tolyl)-7-quinolyl]oxy]propanoyl]-3-piperidyl]acetate]	50 to 500	< 20
C[C@@H](Oc1ccc2c(-c3c(Cl)cc(F)cc3Cl)ccnc2c1)C(=O)N1CCCC(C(C)(C)C(=O)O)C1 (stereo partly drawn) [Compound 195, 2-methyl-2-[1-[rac-(2R)-2-[[4-(2,6-dichloro-4-fluoro-phenyl)-7-quinolyl]oxy]propanoyl]-3-piperidyl]propanoic acid]	10 to 50	20 to 100
C[C@@H](Oc1ccc2c(-c3ccccc3)ccnc2c1)C(=O)N1CCC[C@H](C(=O)O)C1 [Compound 66, (3S)-1-[(2R)-2-[(4-phenyl-7-quinolyl)oxy]propanoyl]piperidine-3-carboxylic acid]	10 to 50	100 to 1000
C[C@@H](Oc1ccc2c(-c3ccc(F)cc3Cl)ccnc2c1)C(=O)Nc1ccncc1 [Compound 95, (2R)-2-[[4-(2-chloro-4-fluoro-phenyl)-7-quinolyl]oxy]-N-(4-pyridyl)propanamide]	50 to 500	100 to 1000
C[C@@H](Oc1ccc2c(-c3ccc(F)cc3Cl)ccnc2c1)C(=O)N1CCCC(C2(C(=O)O)CC2)C1 (mixture of isomers) [Compound 194, 1-[1-[rac-(2R)-2-[[4-(2-chloro-4-fluoro-phenyl)-7-quinolyl]oxy]propanoyl]-3-piperidyl]cyclopropanecarboxylic acid]	10 to 50	20 to 100
Cc1ccccc1-c1cc(Cl)nc2cc(O[C@H](C)C(=O)O)ccc12 [Compound 43, (2R)-2-[[2-chloro-4-(o-tolyl)-7-quinolyl]oxy]propanoic acid]		100 to 1000
C[C@@H](Oc1ccc2c(-c3ccc(F)cc3Cl)cc(Cl)nc2c1)C(=O)O [Compound 91, (2R)-2-[[2-chloro-4-(2-chloro-4-fluoro-phenyl)-7-quinolyl]oxy]propanoic acid]		1000 to 10000
C[C@@H](Oc1ccc2c(-c3ccc(F)cc3Cl)ccnc2c1)C(=O)Nc1ccc(CCO)cc1 [Compound 125, (2R)-2-[[4-(2-chloro-4-fluoro-phenyl)-7-quinolyl]oxy]-N-[4-(2-hydroxyethyl)phenyl]propanamide]		1000 to 10000
Cc1ccsc1-c1ccnc2cc(O[C@H](C)C(=O)N3CCC[C@H](CC(=O)O)C3)ccc12 [Compound 134, 2-[(3R)-1-[(2R)-2-[[4-(3-methyl-2-thienyl)-7-quinolyl]oxy]propanoyl]-3-piperidyl]acetic acid]		1000 to 10000

The remaining lines, values ahead:

IC50 [1] [nM]	IC50 [2] [nM]	Compound
10 to 50	100 to 1000	C[C@@H](Oc1ccc2c(-c3ccc(F)cc3Cl)ccnc2c1)C(=O)N1CCC[C@@H](S(N)(=O)=O)C1 [Compound 117, (3R)-1-[(2R)-2-[[4-(2-chloro-4-fluoro-phenyl)-7-quinolyl]oxy]propanoyl]piperidine-3-sulfonamide]
10 to 50	20 to 100	C[C@@H](Oc1ccc2c(-c3ccc(F)cc3Cl)ccnc2c1)C(=O)N1CCCC(C(C)(C)C(=O)O)C1 (stereo partly drawn) [Compound 197, 2-methyl-2-[1-[rac-(2R)-2-[[4-(2-chloro-4-fluoro-phenyl)-7-quinolyl]oxy]propanoyl]-3-piperidyl]propanoic acid]
< 10	< 20	C[C@@H](Oc1ccc2c(-c3ccc(F)cc3Cl)ccnc2c1)C(=O)N1CCC[C@](C)(C(=O)O)C1 [Compound 189, (3S)-1-[(2R)-2-[[4-(2-chloro-4-fluoro-phenyl)-7-quinolyl]oxy]propanoyl]-3-methyl-piperidine-3-carboxylic acid]
< 10	20 to 100	CC1CCCCN1C(=O)[C@@H](C)Oc1ccc2c(-c3ccc(F)cc3Cl)ccnc2c1 (mixture of isomers) [Compound 200, rac-(2R)-2-[[4-(2-chloro-4-fluoro-phenyl)-7-quinolyl]oxy]-1-(2-methyl-1-piperidyl)propan-1-one]
50 to 500	100 to 1000	C[C@@H](Oc1ccc2c(-c3ccc(F)cc3Cl)ccnc2c1)C(=O)N1CCNC(=O)C1 [Compound 63, (R)-4-(2-((4-(2-chloro-4-fluorophenyl)quinolin-7-yl)oxy)propanoyl)piperazin-2-one]
50 to 500	100 to 1000	CC1CN(C(=O)[C@@H](C)Oc2ccc3c(-c4ccc(F)cc4Cl)ccnc3c2)CC(C)N1 (stereo partly drawn) [Compound 216, (2R)-2-[[4-(2-chloro-4-fluoro-phenyl)-7-quinolyl]oxy]-1-(3,5-dimethylpiperazin-1-yl)propan-1-one]
